Data set [1] relates to E. faecium E007 established biofilms. Format: cell-based, Enterococcus faecium.
Data set [2] concerns E. faecium WC176. Kind of data set: organism not typed. The class given is cell-based, Enterococcus faecium. As to conditions: WC176, 18 h. The procedure: (§1) To determine the MICs of peptides, we used the broth microdilution method described by the Clinical and Laboratory Standards Institute. We made serial dilutions of 10× concentration (10 µL) for each peptide in duplicates in 96-well plates (Cat No. 3595, Corning, New York, NY, USA). We added 90 µL of logarithmic-phase bacteria at 5 × 10^5 CFU/mL (in BHI media) to the peptides and then incubated the plates at 37 °C for 18 h. We measured the OD600 absorbance readings using the Spectra Max i3x spectrophotometer (Molecular Devices, San Jose, CA, USA) and determined the MIC as the peptide concentration that inhibits the growth of bacteria.

For data set [3], the system named is E. faecalis V583. Kind of data set: microbe, parasite or virus in culture. The class given is cell-based. To be noted: V583, 18 h. The procedure:
as §1

For data set [4], the system named is E. faecalis MMH594. Kind of data set: microbe, parasite or virus in culture. To be noted: MMH594, 18 h. Format: cell-based. As to the method: as §1
Data set [5] has as its system E. faecium strain C68. Kind of data set: microbe, parasite or virus in culture. To be noted: strain C68, 18 h. The class given is cell-based, Enterococcus faecium. The procedure: as §1
To investigate the activity of peptides in various salt concentrations, we included physiologically relevant salts in the BHI medium.

The nature of data set [6]: HPLC retention time on C18 reverse-phase column. The class given is physicochemical. From the text:
Table 1 Physical parameters and the minimal inhibitory concentration (µg/mL) of designed peptides against E. faecium. | column: rT ^f (min)

Data set [7] concerns E. faecium D24. Kind of data set: microbe, parasite or virus in culture. Format: cell-based, Enterococcus faecium. To be noted: D24, 18 h. As to the method:
as §1

In data set [8] the test system is E. faecium E007. Kind of data set: microbe, parasite or virus in culture. As to conditions: E007, 18 h. Format: cell-based, Enterococcus faecium. The procedure: as §1
In data set [9] the test system is E. faecium D25. Put plainly: microbe, parasite or virus in culture. The class given is cell-based, Enterococcus faecium. As to conditions: D25, 18 h. The procedure:
as §1

Data set [10] deals with E. faecium strain C68. Put plainly: microbe, parasite or virus in culture. Format: cell-based, Enterococcus faecium. As to conditions: strain C68, 18 h. As to the method: as §1
This is another data set of the same source.

Data set [11] relates to E. faecium D29. Kind of data set: microbe, parasite or virus in culture. The class given is cell-based, Enterococcus faecium. As to conditions: D29, 18 h. As to the method: as §1
Data set [12] deals with E. faecium D14. Kind of data set: microbe, parasite or virus in culture. The class given is cell-based, Enterococcus faecium. As to conditions: D14, 18 h. The procedure:
as §1

Data set [13] has as its system E. faecium strain C68 established biofilms. The class given is cell-based, Enterococcus faecium. To be noted: strain C68 established biofilms, 24 h. As to the method: We prepared exponential cultures of E. faecium strain C68 (adjusted to 1 × 10^8 CFU/mL) in BHI media (supplemented with 0.2% glucose) from overnight grown cultures. We added 100 µL of the bacterial culture to wells of flat-bottomed 96-well polystyrene microtiter plates (Cat No. 3595, Corning, NY, USA). We then incubated the plates at 37 °C for 24 h in static conditions to allow biofilm formation. After incubation, we carefully pipetted out the media and washed the wells with PBS (Gibco, Waltham, MA, USA) to remove loosely attached planktonic cells. We treated the established biofilms in each well with 10 µL of serially diluted 10× peptide solution, followed by the addition of 90 μL of BHI media (supplemented with 0.2% glucose). The plates were incubated for another 24 h at 37 °C before processing for biomass and live-cell contents. We quantitated the concentration of peptide that disrupts 50% of established biofilms (MBEC50).

Data set [14] deals with E. faecalis OG1RF. Put plainly: MIC assay, E. faecalis OG1RF. Format: cell-based. As to conditions: rifampin and fusidic acid resistant. The procedure: as §1
In data set [15] the test system is E. faecium C68 biofilm formation. Kind of data set: Prevention of E. faecium biofilm formation (XTT, crystal violet). To be noted: XTT, 24 h, BHI + 0.2% glucose. Format: cell-based, Enterococcus faecium. As to the method:
We evaluated the ability of the lactoferrin-derived peptides to inhibit biofilm formation following an established protocol with modifications. In short, we prepared exponential cultures of E. faecium C68 (adjusted to OD600 = 0.01) in BHI media (supplemented with 0.2% glucose) from overnight grown cultures. We added 90 µL of the bacterial culture to 10 µL of serially diluted 10× peptide solution in flat-bottomed 96-well polystyrene microtiter plates (Cat No. 3595, Corning, NY, USA) and then incubated the plates at 37 °C for 24 h. We considered media containing bacteria and water as the positive control, while media with water served as the negative control. After incubation, we carefully pipetted out the media and washed the wells with PBS (Gibco, Waltham, MA, USA) to remove loosely attached planktonic cells. We quantified the biomass by staining the biofilms with crystal violet following an established protocol and quantitated the concentration of peptide that inhibits 50% of biofilm formation (MBIC50). Furthermore, we measured the live cell count of the biofilms using XTT [2,3-bis(2-methyloxy-4-nitro-5-sulfophenyl)-2H-tertazolium-5-carboxanilide] dye (ATCC, Manassas, VA, USA). We calculated the percentage of biofilm growth by assuming that there was 100% biofilm growth in wells with bacteria without peptide treatment.

Data set [16] deals with S. aureus MW2. Kind of data set: microbe, parasite or virus in culture. The class given is cell-based, Staphylococcus aureus. To be noted: MW2, 18 h. As to the method: as §1
Data set [17] deals with drug-resistant E. faecium clinical isolates. The class given is cell-based, Enterococcus faecium. As to conditions: strains D14, D24, D25, D29, C68 and WC176. The procedure: as §1
The test system of data set [18] is E. faecium. Kind of data set: Antibacterial activity of native LfcinB6. Format: cell-based, Enterococcus faecium. As to conditions: strain and source not given.

Two substances from paper PMC9404989, “Design and Evaluation of Short Bovine Lactoferrin-Derived Antimicrobial Peptides against Multidrug-Resistant Enterococcus faecium” (Antibiotics, 2022) can be followed below.

No end group written: not given here.

On to RRWLWRRRWLWL-NH2 [Peptide 8L], for which the “concentration killing 50% of live bacteria cells in established biofilms” value in [1] (strain E007, 24 h established biofilms, XTT) is greater than 32 µg/mL. In addition, the established biomass disrupted in [1] (strain E007, at 32 µg/mL) was 25–30%. For the same substance, the “MIC WC176” value in [2] came out at 16 mg/L. In [3], the “MIC E. faecalis V583” value was greater than 32 mg/L. Besides, the “MIC E. faecalis MMH594” value in [4] was greater than 32 mg/L. In [5], the “MIC + CaCl2 (2.5 mM)” value worked out at 16 mg/L, the “MIC + MgSO4 (1 mM)” value turned out to be 4 mg/L, the “MIC + NaCl (150 mM)” value is 4 mg/L and the “MIC + ZnSO4 (8 µM)” value amounted to 2 mg/L. Also, in data set [6], the “rT (HPLC retention time)” value stood at 21.235 min. Further, the “MIC D24” value in data set [7] came to 8 mg/L. The “MIC E007” value in [8] is 4 mg/L. Also, in data set [9], the “MIC D25” value stood at 8 mg/L. In data set [10], the “MIC EF C68” value amounted to 4 mg/L and the “MIC Media Only” value was determined as 4 mg/L. For the same substance, in data set [11], the “MIC D29” value was 32 mg/L. For the same substance, in [12], the “MIC D14” value was determined as 16 mg/L. Moreover, in [13], the “MBEC50 (established biomass)” value worked out at 30 µg/mL. Moreover, in data set [14], the “MIC E. faecalis OG1RF” value is greater than 32 mg/L. Further, the “concentration killing 50% of live bacterial cells during biofilm formation stage” value in [15] worked out at 2.8 µg/mL. Further, the “MIC S. aureus MW2” value in [16] was greater than 32 mg/L. Besides, the “MIC range against clinical isolates of E. faecium” value in data set [17] is 8 to 32 mg/L.

With RRWQWR [LfcinB6], the “activity against E. faecium” value in data set [18] is “inactive”.
